Laboratory results published in patent US11365192B2, “Pyridine compound substituted with azole” (TAISHO PHARMACEUTICAL CO., LTD., priority 2017, dated 2022).

Legend:
[1] = target: human CYP4A11 (Homo sapiens (Human), UniProt Q02928); assay: Inhibition test against 20-HETE producing enzyme CYP4A11 (luciferine derivative, luminescence); format: biochemical; details: E. coli membrane fraction expressing human CYP4A11, 60 μM luciferine derivative, room temperature 60 minutes
Outline: (§1)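 IC50 derived from luminescence after 60 min at room temperature with membrane fractions of E. coli expressing each human CYP (100 μg/mL protein). For CYP4A11, 60 μM luciferin derivative in 100 mM Tris-HCl pH 7.5 with NADPH-regenerating system; for CYP4F2, 2.5 μM substrate, 1 mM NADPH, 50 mM KPO4 pH 7.4.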

[2] = target: human CYP4F2 (Homo sapiens (Human), UniProt P78329); assay: Inhibition test against 20-HETE producing enzyme CYP4F2 (luciferine derivative, luminescence); format: biochemical; details: E. coli membrane fraction expressing human CYP4F2, 2.5 μM luciferine derivative, room temperature 60 minutes
Sequence of human CYP4F2 (P78329 5-520): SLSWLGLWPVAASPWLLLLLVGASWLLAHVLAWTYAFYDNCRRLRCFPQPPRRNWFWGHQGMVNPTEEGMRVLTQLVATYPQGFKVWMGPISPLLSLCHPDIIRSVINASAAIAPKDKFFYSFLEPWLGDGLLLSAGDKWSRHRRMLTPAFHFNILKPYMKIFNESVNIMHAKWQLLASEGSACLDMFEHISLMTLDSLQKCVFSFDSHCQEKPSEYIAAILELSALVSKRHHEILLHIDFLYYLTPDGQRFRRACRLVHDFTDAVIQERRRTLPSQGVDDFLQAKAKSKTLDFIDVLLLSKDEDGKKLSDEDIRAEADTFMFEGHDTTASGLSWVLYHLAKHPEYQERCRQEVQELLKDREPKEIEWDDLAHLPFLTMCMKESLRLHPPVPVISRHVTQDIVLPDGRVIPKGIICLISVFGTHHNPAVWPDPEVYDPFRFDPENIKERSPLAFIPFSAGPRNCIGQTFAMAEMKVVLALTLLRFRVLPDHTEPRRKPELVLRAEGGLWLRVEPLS
Outline: as §1

Sequence of human CYP4A11 (Q02928 5-519): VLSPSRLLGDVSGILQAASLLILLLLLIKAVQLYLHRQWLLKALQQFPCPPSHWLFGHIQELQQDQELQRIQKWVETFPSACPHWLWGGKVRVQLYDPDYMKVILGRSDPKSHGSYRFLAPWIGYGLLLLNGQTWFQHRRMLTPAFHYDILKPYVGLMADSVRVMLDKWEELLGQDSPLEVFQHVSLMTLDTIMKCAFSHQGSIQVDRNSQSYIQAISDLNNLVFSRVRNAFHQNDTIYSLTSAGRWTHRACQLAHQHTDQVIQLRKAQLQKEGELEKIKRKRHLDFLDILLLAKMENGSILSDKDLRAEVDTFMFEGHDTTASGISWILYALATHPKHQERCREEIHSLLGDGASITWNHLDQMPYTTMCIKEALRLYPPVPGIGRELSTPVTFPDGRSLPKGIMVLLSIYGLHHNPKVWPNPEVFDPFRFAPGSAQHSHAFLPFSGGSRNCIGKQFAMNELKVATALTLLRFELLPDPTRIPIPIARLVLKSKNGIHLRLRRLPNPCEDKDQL

Row | SMILES | IC50 [1] | IC50 [2]
1 | O=C(O)c1cc(COc2ccc(-c3ccn[nH]3)nc2)ccc1F [Example 22-15] | 92 nM | 14000 nM
2 | O=C(O)c1cc(COc2ccc(-c3ccn[nH]3)nc2)ccc1Cl [Example 22-16] | 780 nM | 33000 nM
3 | COc1cc(COc2ccc(-c3ccn[nH]3)nc2)ccc1C(=O)O [Example 22-17, 2-Methoxy-4-[[6-(1H-pyrazol-5-yl)-3-pyridinyl]oxymethyl]benzoic Acid] | 62 nM | 19000 nM
4 | O=C(O)c1ccc(COc2ccc(-c3ccn[nH]3)nc2)cc1F [Example 22-18] | 35 nM | 18000 nM
5 | O=C(O)Cc1cccc(OCCOc2ccc(-c3ccn[nH]3)nc2)c1 [Example 22-19, 2-[3-[2-[[6-(1H-Pyrazol-5-yl)-3-pyridinyl]oxy]ethoxy]phenyl] acetic Acid] | 49 nM | 1500 nM
6 | O=C(O)CCCCCCOc1ccc(-c2ccn[nH]2)nc1 [Example 22-20, 7-[[6-(1H-Pyrazol-5-yl)-3-pyridinyl]oxy]heptanoic Acid] | 76 nM | 9600 nM
7 | CNS(=O)(=O)c1cccc(COc2ccc(-c3ccn[nH]3)nc2)c1 [Example 23-1, N-Methyl-3-[[6-(1-H-pyrazol-5-yl)-3-pyridinyl]oxymethyl]benzenesulfonamide] | 36 nM | 220 nM
8 | CNS(=O)(=O)c1cccc(CN(C)S(=O)(=O)c2cccc(COc3ccc(-c4ccn[nH]4)nc3)c2)c1 [Example 23-2, N-Methyl-3-[[methyl-[3-[[6-(1-H-pyrazol-5-yl)-3-pyridinyl]oxymethyl]phenyl]sulfonylamino]methyl]benzenesulfonamide] | 13 nM | 3 nM
9 | O=S(=O)(NCCc1c[nH]c2ccccc12)c1ccc(COc2ccc(-c3ccn[nH]3)nc2)cc1 [Example 23-3] | 1700 nM | 49 nM
10 | OCc1ccc(COc2ccc(-c3ccn[nH]3)nc2)cc1 [Example 23-4] | 2000 nM | 51 nM
11 | OCc1cccc(COc2ccc(-c3ccn[nH]3)nc2)c1 [Example 23-5] | 480 nM | 130 nM
12 | O=S(=O)(Nc1ccc(F)cc1)c1ccc(COc2ccc(-c3ccn[nH]3)nc2)cc1 [Example 23-6] | 270 nM | 6.4 nM
13 | CC(C(=O)O)c1cccc(COc2ccc(-c3ccn[nH]3)nc2)c1 (stereo not drawn) [Example 24-1, Sodium 2-[3-[[6-(1H-pyrazol-5-yl)-3-pyridinyl]oxymethyl]phenyl]propanoate] | 16 nM | 13000 nM
14 | CC(C)(C(=O)O)c1cccc(COc2ccc(-c3ccn[nH]3)nc2)c1 [Example 24-2, Sodium 2-methyl-2-[3-[[6-(1H-pyrazol-5-yl)-3-pyridinyl]oxymethyl]phenyl]propanoate] | 16 nM | 3500 nM
15 | CC(C)(C(=O)O)c1cccc(OCCOc2ccc(-c3ccn[nH]3)nc2)c1 [Example 24-3] | 60 nM | 3200 nM
16 | Cc1cc(COc2ccc(-c3ccn[nH]3)nc2)ccc1C(=O)O [Example 25-1, 2-Methyl-4-[[6-(1H-pyrazol-5-yl)-3-pyridinyl]oxymethyl]benzoic Acid] | 33 nM | 16000 nM
17 | O=C(O)Cn1cc(CCCOc2ccc(-c3ccn[nH]3)nc2)nn1 [Example 35-1, 2-[4-[3-[[6-(1H-Pyrazol-5-yl)-3-pyridinyl]oxy]propyl]-1-triazolyl]acetic Acid] | 3000 nM | 20000 nM

Now from value to compound:

Row | IC50 [1] | IC50 [2] | SMILES
18 | 44 nM | 400 nM | CC(C)(O)c1cccc(COc2ccc(-c3ccn[nH]3)nc2)c1 [Example 27-1, 2-[3-[[6-(1-H-Pyrazol-5-yl)-3-pyridinyl]oxymethyl]phenyl]-2-propanol]
19 | 15 nM | 300 nM | CC(O)(c1cccc(COc2ccc(-c3ccn[nH]3)nc2)c1)C(F)(F)F (stereo not drawn) [Example 27-2]
20 | 120 nM | 350 nM | OC1(c2cccc(COc3ccc(-c4ccn[nH]4)nc3)c2)CCC1 [Example 27-3]
21 | 110 nM | 120 nM | OC1(c2cccc(COc3ccc(-c4ccn[nH]4)nc3)c2)CCCC1 [Example 27-4]
22 | 79 nM | 900 nM | CC(C)(O)c1cc(COc2ccc(-c3ccn[nH]3)nc2)ccc1F [Example 27-5]
23 | 61 nM | 470 nM | O=C(O)[C@H]1C[C@](O)(c2cccc(COc3ccc(-c4ccn[nH]4)nc3)c2)C1 [Example 28-1, 3-Hydroxy-3-[3-[[6-(1-H-pyrazol-5-yl)-3-pyridinyl]oxymethyl]phenyl]-1-cyclobutanecarboxylic Acid]
24 | 100 nM | 1000 nM | O=C(O)[C@H]1C[C@](O)(c2cc(COc3ccc(-c4ccn[nH]4)nc3)ccc2F)C1 [Example 28-2]
25 | 650 nM | 4000 nM | O=C(O)c1cccc(CCCOc2ccc(-c3ccn[nH]3)nc2)n1 [Example 29-1, 6-[3-[[6-(1H-Pyrazol-5-yl)-3-pyridinyl]oxy]propyl]-2-pyridinecarboxylic Acid]
26 | 1300 nM | 2700 nM | O=C(O)c1ccnc(CCCOc2ccc(-c3ccn[nH]3)nc2)c1 [Example 29-2, 2-[3-[[6-(1H-Pyrazol-5-yl)-3-pyridinyl]oxy]propyl]-4-pyridinecarboxylic Acid]
27 | 380 nM | 84 nM | O=C(O)c1ncc(CCCCOc2ccc(-c3ccn[nH]3)nc2)cn1 [Example 29-3]
28 | 42 nM | 240 nM | O=C(O)c1ccc(CCCCOc2ccc(-c3ccn[nH]3)nc2)cn1 [Example 29-4]
29 | 29 nM | 690 nM | O=C(O)c1cccc(CCCCOc2ccc(-c3ccn[nH]3)nc2)n1 [Example 29-5]
30 | 17 nM | 1400 nM | O=C(O)CCCc1cccc(COc2ccc(-c3ccn[nH]3)nc2)c1 [Example 30-1, 4-[3-[[6-(1H-Pyrazol-5-yl)-3-pyridinyl]oxymethyl]phenyl]butanoic Acid]
31 | 160 nM | 190 nM | O=C(O)CCCc1ccc(COc2ccc(-c3ccn[nH]3)nc2)cc1 [Example 30-2]
32 | 150 nM | 370 nM | O=C(O)CCc1cccc(CCCOc2ccc(-c3ccn[nH]3)nc2)c1 [Example 30-3, 3-[3-[3-[[6-(1H-Pyrazol-5-yl)-3-pyridinyl]oxy]propyl]phenyl]propanoic Acid]
33 | 140 nM | 350 nM | O=C(O)CCCc1cccc(CCCOc2ccc(-c3ccn[nH]3)nc2)c1 [Example 30-4]

Row | IC50 [1] | IC50 [2] | SMILES
34 | 420 nM | 74 nM | O=C(O)CCCc1ccc(CCCOc2ccc(-c3ccn[nH]3)nc2)cc1 [Example 30-5]
35 | 9.3 nM | 110 nM | O=C(O)c1cccc(-c2cccc(COc3ccc(-c4ccn[nH]4)nc3)c2)c1 [Example 31-1, 3-[3-[[6-(1H-Pyrazol-5-yl)-3-pyridinyl]oxymethyl]phenyl]benzoic Acid]
36 | 9.8 nM | 100 nM | O=C(O)c1ccc(-c2cccc(COc3ccc(-c4ccn[nH]4)nc3)c2)cc1 [Example 31-2]
37 | 25 nM | 180 nM | O=C(O)c1ccc(-c2cccc(COc3ccc(-c4ccn[nH]4)nc3)c2)cn1 [Example 31-3, 5-[3-[[6-(1H-Pyrazol-5-yl)-3-pyridinyl]oxymethyl]phenyl]-2-pyridinecarboxylic Acid]
38 | 12 nM | 390 nM | O=C(O)c1cncc(-c2cccc(COc3ccc(-c4ccn[nH]4)nc3)c2)c1 [Example 31-4]
39 | 33 nM | 430 nM | O=C(O)Cc1cccc(CCCOc2ccc(-c3ccn[nH]3)nc2)c1 [Example 32-1, 2-[3-[3-[[6-(1H-Pyrazol-5-yl)-3-pyridinyl]oxy]propyl]phenyl]acetic Acid]
40 | 22 nM | 1300 nM | CC(C)(C(=O)O)c1cccc(CCCOc2ccc(-c3ccn[nH]3)nc2)c1 [Example 32-2]
41 | 180 nM | 7000 nM | CC(=O)N1CCC(C(=O)O)(c2cccc(COc3ccc(-c4ccn[nH]4)nc3)c2)CC1 [Example 33-1, 1-Acetyl-4-[3-[[6-(1H-pyrazol-5-yl)-3-pyridinyl]oxymethyl]phenyl]-4-piperidinecarboxylic Acid]
42 | 130 nM | 14000 nM | O=C(O)C1(c2cccc(COc3ccc(-c4ccn[nH]4)nc3)c2)CCOCC1 [Example 33-2, 4-[3-[[6-(1H-Pyrazol-5-yl)-3-pyridinyl]oxymethyl]phenyl]-4-oxanecarboxylic Acid]
43 | 42 nM | 4100 nM | O=C(O)C1CCN(c2cccc(COc3ccc(-c4ccn[nH]4)nc3)c2)CC1 [Example 34-1, 1-[3-[[6-(1H-Pyrazol-5-yl)-3-pyridinyl]oxymethyl]phenyl]-4-piperidinecarboxylic Acid]
44 | 50 nM | 11000 nM | O=C(O)C1CCCN(c2cccc(COc3ccc(-c4ccn[nH]4)nc3)c2)C1 (stereo not drawn) [Example 34-2]
45 | 26 nM | 390 nM | O=C(O)c1cnn(-c2cccc(COc3ccc(-c4ccn[nH]4)nc3)c2)c1 [Example 34-3, 1-[3-[[6-(1H-Pyrazol-5-yl)-3-pyridinyl]oxymethyl]phenyl]-4-pyrazolecarboxylic Acid]
46 | 360 nM | 5700 nM | O=C(O)Cn1cc(CCCCOc2ccc(-c3ccn[nH]3)nc2)nn1 [Example 35-2]
47 | 290 nM | 7400 nM | CC(C)(C(=O)O)n1cc(CCCCOc2ccc(-c3ccn[nH]3)nc2)nn1 [Example 35-3]
48 | 82 nM | 93 nM | CC(C)(O)CS(=O)(=O)c1cccc(COc2ccc(-c3ccn[nH]3)nc2)c1 [Example 36-1, 2-Methyl-1-[3-[[6-(1-H-pyrazol-5-yl)-3-pyridinyl]oxymethyl]phenyl] sulfonyl-2-propanol]
